Experimental data as given in patent publication US8404718B2, “Combinations of pyrazole kinase inhibitors” (Astex Therapeutics Limited, priority 2005, dated 2013).
pIC50: −log10 of the molar value.

Assays:
[1] = target: T1, GSK3-β (Homo sapiens, UniProt P49841); test: Inhibitory activity against glycogen synthase kinase-3 (Protocol A or B); format: biochemical; conditions: either Protocol A or Protocol B; read-out: IC50 in the GSK3-B assays
T1 construct: purchased Upstate Discovery
Protocol: The activities of the compounds of the invention as inhibitors of GSK-3 were determined using either Protocol A or Protocol B below.
The reaction is allowed to proceed for 3 hours before being stopped with an excess of ortho-phosphoric acid (5 μl at 2%). The filtration procedure is as for Activated CDK2/CyclinA assay above.
GSK3β (human) is diluted to a 10× working stock in 50 mM Tris pH 7.5, 0.1 mM EGTA, 0.1 mM sodium vanadate, 0.1% β-mercaptoethanol, 1 mg/ml BSA.
(§1) (specific activity approx 500 cpm/pmol, concentration as required).

[2] = test system: human colon carcinoma cell line HCT 116; test: Anti-proliferative activity, Alamar Blue assay; format: cell-based; conditions: 72 hours compound incubation, read-out: IC50, inhibition of cell growth, HCT 116
Protocol: The anti-proliferative activities of the combinations of the invention, as well as the individual components of the combinations, are determined by measuring the ability of the compounds to inhibition of cell growth in a number of cell lines. Inhibition of cell growth is measured using the Alamar Blue assay (Nociari, M. M, Shalev, A., Benias, P., Russo, C. Journal of Immunological Methods 1998, 213, 157-167). The method is based on the ability of viable cells to reduce resazurin to its fluorescent product resorufin. For each proliferation assay cells are plated onto 96 well plates and allowed to recover for 16 hours prior to the addition of inhibitor compounds for a further 72 hours. At the end of the incubation period 10% (v/v) Alamar Blue is added and incubated for a further 6 hours prior to determination of fluorescent product at […]. In the case of the non-proliferating cell assay cells are maintained at confluence for 96 hour prior to the addition of inhibitor compounds for a further 72 hours. The number of viable cells is determined by Alamar Blue assay as before. All cell lines are obtained from ECACC (European Collection of cell Cultures).

[3] = target: T2, CDK2/CyclinA (Homo sapiens, UniProt P24941); test: Measurement of CDK2 kinase inhibitory activity (IC50), Example 248; format: biochemical
T2 construct: purchased Upstate Biotechnology
Protocol: Compounds of the invention were tested for kinase inhibitory activity using either the following protocol or the activated CDK2/cyclin A kinase protocol described in Example 250.
1.7 μl of active CDK2/CyclinA (Upstate Biotechnology, 10 U/μl) is diluted in assay buffer (25.0 μl of 10× strength assay buffer (200 mM MOPS pH 7.2, 250 mM (3-glycerophosphate, 50 mM EDTA, 150 mM MgCl2), 11.27 μl 10 mM ATP, 2.5 μl 1M DTT, 25 μl 100 mM sodium orthovanadate, 708.53 μl H2O), and 10 μl mixed with 10 μl of histone substrate mix (60 μl bovine histone H1 (Upstate Biotechnology, 5 mg/ml), 940 μl H2O, 35 μCi γ^33P-ATP) and added to 96 well plates along with 5 μl of various dilutions of the test compound in DMSO (up to 2.5%). The reaction is allowed to proceed for 5 hours before being stopped with an excess of ortho-phosphoric acid (30 μl at 2%).
(§2) γ^33P-ATP which remains unincorporated into the histone H1 is separated from phosphorylated histone H1 on a Millipore MAPH filter plate. The wells of the MAPH plate are wetted with 0.5% orthophosphoric acid, and then the results of the reaction are filtered with a Millipore vacuum filtration unit through the wells. Following filtration, the residue is washed twice with 200 μl of 0.5% orthophosphoric acid. Once the filters have dried, 25 μl of Microscint 20 scintillant is added, and then counted on a Packard Topcount for 30 seconds.

[4] = target: Activated CDK2/CyclinA (Homo sapiens, UniProt P24941); test: Activated CDK2/CyclinA kinase inhibitory activity assay (IC50), Example 250A; format: biochemical
Protocol: Compounds of the invention were tested for kinase inhibitory activity using the following protocol.
(§3) The reaction is allowed to proceed for 2 to 4 hours before being stopped with an excess of ortho-phosphoric acid (5 μl at 2%).
as §2, with “20” for “25”

[5] = target: T3, CDK1/CyclinB (Homo sapiens, UniProt P06493); test: CDK1/CyclinB assay; format: biochemical; conditions: Example 250B protocol or selectivity protocol
T3 construct: purchased Upstate Discovery
T3 sequence (P06493 whole entry): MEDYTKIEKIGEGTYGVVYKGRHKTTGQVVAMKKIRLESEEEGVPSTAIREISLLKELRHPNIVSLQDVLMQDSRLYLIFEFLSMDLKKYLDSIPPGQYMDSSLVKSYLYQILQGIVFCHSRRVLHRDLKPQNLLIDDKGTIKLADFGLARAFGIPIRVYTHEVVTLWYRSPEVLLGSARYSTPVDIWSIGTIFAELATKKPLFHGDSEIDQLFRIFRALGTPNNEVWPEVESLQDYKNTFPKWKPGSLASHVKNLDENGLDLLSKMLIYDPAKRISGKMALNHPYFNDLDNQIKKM
T3 sequence (P14635 whole entry partner): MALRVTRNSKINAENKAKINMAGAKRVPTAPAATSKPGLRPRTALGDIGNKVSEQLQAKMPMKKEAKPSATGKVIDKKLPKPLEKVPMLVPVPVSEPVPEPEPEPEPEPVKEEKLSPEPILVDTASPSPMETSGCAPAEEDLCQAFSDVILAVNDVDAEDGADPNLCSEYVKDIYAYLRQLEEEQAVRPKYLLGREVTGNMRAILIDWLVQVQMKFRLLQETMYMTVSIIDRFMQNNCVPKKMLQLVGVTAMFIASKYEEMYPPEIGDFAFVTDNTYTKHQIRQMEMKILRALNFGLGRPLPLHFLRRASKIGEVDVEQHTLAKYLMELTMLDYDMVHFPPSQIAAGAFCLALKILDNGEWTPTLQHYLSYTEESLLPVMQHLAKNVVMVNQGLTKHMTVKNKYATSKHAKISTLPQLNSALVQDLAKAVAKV
Protocol: as §1, §3
as §2, with “20” for “25”

T1 sequence (P49841 whole entry): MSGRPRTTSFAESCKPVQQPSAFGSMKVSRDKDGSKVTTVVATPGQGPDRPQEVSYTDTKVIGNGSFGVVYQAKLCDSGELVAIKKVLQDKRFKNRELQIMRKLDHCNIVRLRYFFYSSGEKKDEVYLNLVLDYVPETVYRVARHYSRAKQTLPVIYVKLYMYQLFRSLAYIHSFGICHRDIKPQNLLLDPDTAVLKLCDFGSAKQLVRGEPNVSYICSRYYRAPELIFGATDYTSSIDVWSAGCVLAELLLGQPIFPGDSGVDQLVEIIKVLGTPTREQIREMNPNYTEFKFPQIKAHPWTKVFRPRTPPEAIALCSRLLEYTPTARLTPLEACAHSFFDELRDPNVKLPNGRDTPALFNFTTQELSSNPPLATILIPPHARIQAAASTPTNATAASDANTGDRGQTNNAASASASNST

Structure (SMILES)	pIC50 [1]	pIC50 [2]	pIC50 [3]	pIC50 [4]	pIC50 [5]
O=C(Nc1c[nH]nc1C(=O)Nc1ccc(F)cc1)c1ccccc1 [Example 26, 4-Benzoylamino-1H-pyrazole-3-carboxylic acid (4-fluoro-phenyl)-amide]	> 5.00	> 4.70			
Cc1sccc1C(=O)Nc1c[nH]nc1C(=O)Nc1ccc(F)cc1 [Example 48, 4-[(2-Methyl-thiophene-3-carbonyl)-amino]-1H-pyrazole-3-carboxylic acid (4-fluoro-phenyl)-amide]	> 5.00	> 4.70			
O=C(NC1CCNCC1)c1n[nH]cc1NC(=O)c1c(F)cccc1F [Example 76]	> 5.00	> 4.70			
CC(C)(C)C1CCC(NC(=O)c2c[nH]nc2NC(=O)c2c(F)cccc2F)CC1 (centres unmarked) [Example 77]	> 5.00	> 4.70			
O=C(NC1CCN(Cc2ccccc2)CC1)c1n[nH]cc1NC(=O)c1c(F)cccc1F [Example 86]	> 5.00	> 4.70			
O=C(NCc1c(Cl)cccc1Cl)c1n[nH]cc1NC(=O)c1c(F)cccc1F [Example 93]		> 4.70	> 3.12		
N[C@H]1CC[C@H](NC(=O)c2n[nH]cc2NC(=O)c2c(F)cccc2F)CC1 [Example 102]	> 5.00	> 4.70		> 4.70	
CC(C)N1CCC(NC(=O)c2n[nH]cc2NC(=O)c2c(F)cccc2F)CC1 [Example 106]	> 5.00	> 4.70		> 4.70	
COc1cccc(F)c1C(=O)Nc1c[nH]nc1C(=O)NC1CCN(C(=O)OC(C)(C)C)CC1 [Example 119]	> 5.00	> 4.70		> 4.70	
CC(C)(C)C1CCC(NC(=O)c2n[nH]cc2NC(=O)c2ccc(F)cc2)CC1 (centres unmarked) [Example 122]	> 5.00				
CC(C)(C)C1CCC(NC(=O)c2n[nH]cc2NC(=O)c2ccc(Cl)cc2)CC1 (centres unmarked) [Example 126]	> 5.00				
CC(C)(C)C1CCC(NC(=O)c2n[nH]cc2NC(=O)c2ccccc2)CC1 (centres unmarked) [Example 127]	> 5.00				
CC(C)(C)C1CCC(NC(=O)c2n[nH]cc2NC(=O)c2ccc(OC(F)F)cc2)CC1 (centres unmarked) [Example 128]	> 5.00				
CC(C)(C)C1CCC(NC(=O)c2n[nH]cc2NC(=O)c2cc(F)cc(F)c2)CC1 (centres unmarked) [Example 129]	> 5.00				
CC(C)(C)C1CCC(NC(=O)c2n[nH]cc2NC(=O)c2ccc(CN3CCOCC3)o2)CC1 (centres unmarked) [Example 135]	> 5.00	> 4.00		> 4.70	
Cc1oc(CN2CCOCC2)cc1C(=O)Nc1c[nH]nc1C(=O)NC1CCC(C(C)(C)C)CC1 (centres unmarked) [Example 138]	> 5.00	> 4.70			
O=C(Nc1c[nH]nc1C(=O)NC1CCNCC1)c1ccc(F)cc1 [Example 141]	> 5.00	> 4.70			
COc1cccc(F)c1C(=O)Nc1c[nH]nc1C(=O)NC1CCNCC1 [Example 142]	> 5.00	> 4.70		> 4.70	
O=C(Nc1c[nH]nc1C(=O)NC1CCNCC1)c1ccc(Cl)cc1 [Example 143]	> 5.00	> 4.70		> 4.70	
O=C(Nc1c[nH]nc1C(=O)NC1CCNCC1)c1cc(-c2ccccc2)cs1 [Example 147]	> 5.00	> 4.70		> 4.70	
O=C(NC1CCNCC1)c1n[nH]cc1NC(=O)c1c(F)cccc1Cl [Example 149]	> 5.00	> 4.70		> 4.70	
O=C(Nc1c[nH]nc1C(=O)NC1CCNCC1)c1ccc(N2CCOCC2)cc1Cl [Example 151]	> 5.00	> 4.70			
CN1CCC(NC(=O)c2n[nH]cc2NC(=O)c2cccc3c2OCCO3)CC1 [Example 188]		> 4.70		> 4.70	> 4.00
CN1CCC(NC(=O)c2n[nH]cc2NC(=O)c2cc(Cl)ccc2Cl)CC1 [Example 212]		> 4.70		> 4.70	
NC(=O)c1n[nH]cc1-c1ccccc1 [Example 228, 4-Phenyl-1H-pyrazole-3-carboxylic acid amide]			> 3.12		
CN1CCN(c2ccc(CNC(=O)c3n[nH]cc3-c3ccccc3)cc2)CC1 [Example 230, 4-Phenyl-1H-pyrazole-3-carboxylic acid 4-(4-methyl-piperazin-1-yl)-benzylamide]			> 3.12		
Cc1ccc(C)n1-c1c[nH]nc1C(=O)Nc1ccc(F)cc1 [Example 235, 4-(2,5-Dimethyl-pyrrol-1-yl)-1H-pyrazole-3-carboxylic acid(4-fluoro-phenyl)-amide]			> 3.12		

Other lines, results leading:

pIC50 [1]	pIC50 [2]	pIC50 [3]	pIC50 [4]	pIC50 [5]	Structure (SMILES)
> 5.00	> 4.00				CC(=O)Nc1c[nH]nc1C(=O)Nc1ccc(F)cc1 [Example 2, 4-Acetylamino-1H-pyrazole-3-carboxylic acid (4-fluoro-phenyl)-amide]
> 5.00	> 4.70				CN1CCC(NC(=O)c2n[nH]cc2NC(=O)c2c(F)cccc2F)CC1 [Example 53, 4-(2,6-Difluoro-benzoylamino)-1H-pyrazole-3-carboxylic acid (1-methyl-piperidin-4-yl)-amide]
> 5.00	> 4.70				O=C(NC1CCCCC1)c1n[nH]cc1NC(=O)c1c(F)cccc1F [Example 65]
> 5.00					O=C(NCCN1CCOCC1)c1n[nH]cc1NC(=O)c1c(F)cccc1F [Example 84]
		> 3.12			CC1(C)CC(NC(=O)c2n[nH]cc2NC(=O)c2c(F)cccc2F)CC(C)(C)N1 [Example 88]
> 5.00	> 4.70		> 4.70		COc1cccc(F)c1C(=O)Nc1c[nH]nc1C(=O)NC1CCC(C(C)(C)C)CC1 (centres unmarked) [Example 123]
> 5.00	> 4.70		> 4.70		CS(=O)(=O)N1CCC(NC(=O)c2n[nH]cc2NC(=O)c2c(F)cccc2F)CC1 [Example 131]
> 5.00	> 4.70		> 4.70		CC(C)(C)C1CCC(NC(=O)c2n[nH]cc2NC(=O)c2ccc(CN3CCCC3)o2)CC1 (centres unmarked) [Example 134]
> 5.00	> 4.70				O=C(Nc1c[nH]nc1C(=O)NC1CCNCC1)c1ccccc1 [Example 140]
> 5.00			> 4.70		O=C(Nc1c[nH]nc1C(=O)NC1CCNCC1)c1cc(F)cc(F)c1 [Example 144]
> 5.00			> 4.70		O=C(Nc1c[nH]nc1C(=O)NC1CCNCC1)c1ccc(OC(F)F)cc1 [Example 145]
> 5.00					Cc1onc(-c2ccccc2)c1C(=O)Nc1c[nH]nc1C(=O)NC1CCNCC1 [Example 146]
	> 4.00			> 4.00	COc1cccc(OC)c1C(=O)Nc1c[nH]nc1C(=O)NC1CCN(C)CC1 [Example 206]
	> 4.70		> 4.70		CN1CCC(NC(=O)c2n[nH]cc2NC(=O)c2cccc(Cl)c2Cl)CC1 [Example 213]
	> 4.70		> 4.70		CN1CCN(c2cc(F)cc(C(=O)Nc3c[nH]nc3C(=O)NC3CCCCC3)c2)CC1 [Example 215]
		> 3.12			CN1CCN(c2ccc(CNC(=O)c3n[nH]cc3-c3ccc(Cl)cc3Cl)cc2)CC1 [Example 226, 4-(2,4-Dichloro-phenyl)-1H-pyrazole-3-carboxylic acid 4-(4-methyl-piperazin-1-yl)-benzylamide]
